From patent publication US6432416B1, “Anti-microbial power coating” (Dupont Powder Coatings USA, Inc., priority 1997, dated 2002)

How the values were obtained:
[1] = tested on: Aspergillus niger (ATCC 6275), Penicillium funiculosum (ATCC 11797), and Aureobasidium pullulans (ATCC 9348); test: Resistance to fungal growth, ASTM D5590-95, mixed spore suspension; settings: concentration of 1 percent; four weeks of exposure to fungus spores
Method: Resistance to fungal growth was tested generally in accordance with ASTM D5590-95. […] Samples were aseptically placed onto a modified malt agar plate and then each sample was inoculated.
The same samples were also exposed to fungus spores for a period of four weeks.

[2] = tested on: Pseudomonas aeruginosa, Escherichia coli, and Salmonella typhinurium; test: Long-term anti-microbial activity test of cured powder coatings (bacterial coverage rating); settings: cured epoxy powder coating; for AVERAGE BACTERIAL COVERAGE: growth rating 0 (good) to 4 (poor), averaged over the different samples (0.1 and 1 percent additive, different thickness), after four weeks; for bacterial coverage / activity relative to the control: long-term test
Method: A long-term anti-microbial activity test was carried out to determine if selected anti-microbial agents maintain their anti-microbial activity after being incorporated into powder coatings and cured.
Six anti-microbial agents were selected for experimentation. […] For each powder coating formulation, one of the six anti-microbial agents was added at concentrations of 0.1 percent and 1 percent of the total resin weight.
Samples containing one of the six additives at the two concentrations in the coating matrix were prepared. […] Controls containing the coating formulation with no additive and controls containing only the black silicone resin used for edge coverage were included.
The target bacterial organisms were Pseudomonas aeruginosa, Escherichia coli, and Salmonella typhinurium. Five groups of samples were prepared. […] Each of the following samples was prepared with an additive concentration of 1 percent of the resin by weight.
The results were then rated on a scale of “0” (good performance) to “4” (poor performance) based on the number of colony-forming units observed. The growth ratings, which were averaged over the different samples, are based on the following numerical rating system:
0=No contamination (sterile).
1=Trace of contamination (1-9 colonies per “streak-inch”).
2=Light contamination (10-99 colonies per “streak-inch”).
3=Moderate contamination (greater than 100 colonies, but still distinguishable).
4=Heavy contamination (continuous smear of growth).

[3] = tested on: fungus spores of Aspergillus niger, Penicillium funiculosum, and Aerobasidium pullulans; test: Shorter-term fungal test per ASTM D 5588-94; format: cell-based; settings: after 72 hours of incubation
Method: Next, steel coupons were coated with the anti-microbial formulations listed above and exposed per ASTM D 5588-94 to a mixture containing the fungus spores of Aspergillus niger, Penicillium funiculosum, and Aerobasidium pullulans. After the coupons were washed with a 70 percent ethanol/water solution, they were placed in a sterile Petri dish, inoculated, and incubated at 28° C. for the duration of the test. At appropriate intervals, each sample was checked for the presence of viable microorganisms by streaking each sample with a sterile cotton swab, then streaking the swab onto Potato Dextrose Agar (adjusted to pH 3.5 for fungi). These plates were also incubated at 28° C. […] The presence of microbial growth would indicate non-sterility, i.e., the sample contained viable microbial contamination.

[4] = tested on: Pseudomonas aeruginosa, Staphylococcus aureus, and Escherichia coli; test: Shorter-term bacterial test per ASTM D 5588-94; format: cell-based; settings: after 72 hours of incubation; 0.1 percent and 1 percent formulations
Method: Steel coupons were coated with the Fungitrol® 11, Butyl Parabens®, and Amerstat® 300 anti-microbial formulations, at 0.1 percent and 1 percent, and exposed as per ASTM D 5588-94 to a mixture containing the bacteria Pseudomonas aeruginosa, Staphylococcus aureus, and Escherichia coli. After the coupons were washed with a 70 percent ethanol/water solution, they were placed in a sterile Petri dish, inoculated, and incubated at 32° C. for the duration of the test.
At appropriate intervals, each sample was checked for the presence of viable microorganisms by streaking each sample with a sterile cotton swab, then streaking the swab onto Tryptic Soy Agar. The plates were incubated for 48 hours at 32° C. […] The presence of microbial growth would indicate non-sterility, i.e., the sample contained viable microbial contamination.
The samples were examined for low levels of bacterial contamination by transferring an aliquot with a sterile cotton swab to a Tryptic Soy Broth in culture tubes. The tubes were incubated for 24 hours at 32° C., streaked onto Tryptic Soy Agar plates and the plates were incubated for 24 to 48 hours at 32° C.

[5] = tested on: Staphylococcus aureus, Escherichia coli, and Salmonella choleraesuis; test: AATCC Test Method 147 at higher anti-microbial concentration (zones of inhibition)
[6] = 5 percent agent in powder coating

Structure (SMILES)	fungal growth on coating surface [1]	AVERAGE BACTERIAL COVERAGE [2]	bacterial coverage / activity relative to the control [2]	other results
N#Cc1c(Cl)c(Cl)c(Cl)c(C#N)c1Cl [Nuocide® 960, tetrachloroisophthalonitrile]	free of visible fungal growth	3.0 ± 1.3	–	–
CCCCOC(=O)c1ccc(O)cc1 [Butyl Parabens®, butyl-p-hydroxy-benzoate]	free of visible fungal growth	2.6 ± 1.3	–	growth on coated samples exposed to fungus spores [3]: free of (or showed very low levels of) bacterial growth; bacterial growth on coated samples [4]: free of bacterial growth and were actually sterile
CCCOC(=O)c1ccc(O)cc1 [Propyl Parabens®]	free of visible fungal growth	3.7 ± 0.5	did not appear to improve the activity relative to the control	–
N#CC(Br)(Br)C(N)=O [Amerstat® 300, dibromocyanoacetamide]	a very small amount of fungal growth	1.6 ± 1.5	significantly improved bacterial coverage	bacterial growth on coated samples [4]: did not show conclusive results
CN1CSC(=S)N(C)C1 [Nuosept® S, 3,5-dimethyltetrahydro-1,3,5-2H-thiazine-2-thione]	did not show conclusive fungal resistance	3.6 ± 0.5	did not appear to improve the activity relative to the control	zones of inhibition [5, 6]: Significant zones of inhibition; zones of inhibition ([5]; 10 percent agent in powder coating): Significant zones of inhibition; inhibiting the growth of Escherichia coli and Salmonella choleraesuis, compared with the triclosan formulation [5]: performed as well as or better than the triclosan formulation
Oc1cc(Cl)ccc1Oc1ccc(Cl)cc1Cl [Irgasan® DP 400, 5-chloro-2-(2,4-dichloro-phenoxy)phenol]	–	–	–	zones of inhibition ([5]; 3 percent agent in powder coating): Significant zones of inhibition
O=[N+]([O-])C(Br)(CO)CO [Canguard® 409, 2-bromo-2-nitropropane-1,3-diol]	–	–	–	zones of inhibition [5, 6]: Significant zones of inhibition; inhibiting the growth of Escherichia coli and Salmonella choleraesuis, compared with the triclosan formulation [5]: performed better than the triclosan formulation
